Data taken from PubChem BioAssay AID602308 (Southern Research Specialized Biocontainment Screening …, 2012).
Calls of active or inactive are those of the source. How the calls were made is not given here.

Molecular target: Flavivirus NS5 methyltransferase / guanylyltransferase (capping enzyme)
Assay: NS5 cap-forming enzyme inhibition – biochemical, confirmation (AID 602308)
Settings: Flavivirus NS5 capping enzyme biochemical inhibition assay

IC50	SMILES
43.3 µM	O=S(=O)(Nc1cc(SCc2ccccc2)c(O)c2ccccc12)c1ccc(Cl)cc1
3.83 µM	O=C(O)CSc1cc(NS(=O)(=O)c2cccc([N+](=O)[O-])c2)c2ccccc2c1O
6.24 µM	Cc1ccc(S(=O)(=O)Nc2cc(SCC(=O)O)c(O)c3ccccc23)cc1
17.8 µM	O=S(=O)(Nc1cc(Cl)c(O)c2ccccc12)c1ccc(F)cc1
6.62 µM	O=C(O)CSc1cc(NS(=O)(=O)c2cccc3cccnc23)c2ccccc2c1O
5.66 µM	Cc1cc(F)ccc1S(=O)(=O)Nc1cc(SCC(=O)O)c(O)c2ccccc12
83.8 µM	Cc1ccc(S(=O)(=O)Nc2cc(Sc3nc(C)cc(C)n3)c(O)c3ccccc23)cc1
35.6 µM	O=S(=O)(Nc1cc(Sc2ccccc2)c(O)c2ccccc12)c1ccc(F)cc1
6.95 µM	Cc1cc(C)c(S(=O)(=O)Nc2cc(SCC(=O)O)c(O)c3ccccc23)c(C)c1
5.45 µM	O=C(O)CSc1cc(NS(=O)(=O)c2ccc(Cl)cc2)c2ccccc2c1O
9.09 µM	COc1ccc(OC)c(S(=O)(=O)Nc2cc(SCC(=O)O)c(O)c3ccccc23)c1
7.32 µM	O=C(O)CSc1cc(NS(=O)(=O)c2ccc(F)cc2)c2ccccc2c1O
10.2 µM	O=S(=O)(Nc1cc(Sc2ncn[nH]2)c(O)c2ccccc12)c1ccc(F)cc1
14.8 µM	O=[N+]([O-])c1cccc(S(=O)(=O)Nc2cc(SCc3ccccc3)c(O)c3ccccc23)c1
34.3 µM	O=[N+]([O-])c1cccc(S(=O)(=O)Nc2cc(Sc3nc4ccccc4s3)c(O)c3ccccc23)c1
4.96 µM	O=C(O)CSc1cc(NS(=O)(=O)c2ccc(Br)cc2)c2ccccc2c1O

Continued, compound first:

SMILES	IC50
Cn1c(=O)c2[nH]c(-c3ccc(Cl)cc3)c(O)c2n(C)c1=O	57.8 µM
Cn1c(=O)c2[nH]c(-c3ccccc3)c(O)c2n(C)c1=O	28.1 µM

Same assay, conditions: Flavivirus NS5 capping enzyme biochemical inhibition assay; at 100 µM (top of the series)

SMILES	inhibition
Cn1c(=O)c2cnc(-c3ccccc3)nc2n(C)c1=O	inactive
Cc1ccn2cc(-c3ccccc3)nc2c1	inactive
Cc1ccc2nc(-c3ccccc3)cn2c1	inactive
Cn1c(=O)c2[nH]c(-c3ccccc3)nc2n(C)c1=O	inactive
Cc1nc2nc(-c3ccc(Cl)cc3)cn2nc1C	inactive
CN(C)C(=O)c1ccc2nc(-c3ccccc3)cn2c1	inactive
Clc1ccc2nc(-c3ccccc3)cn2c1	inactive
Cc1nc2nc(-c3ccccc3)cn2nc1C	inactive
Cc1ccc(-c2cn3nc(C)c(C)nc3n2)cc1	inactive
Clc1ccc2nc(-c3cccs3)cn2c1	inactive
Cc1nc2nc(-c3ccc(F)cc3)cn2nc1C	inactive
Cn1c(=O)c2[nH]c(-c3cccc4ccccc34)c(O)c2n(C)c1=O	inactive
